From patent US8603527B2, “Pharmaceutical formulations of a substituted diaminopurine” (Signal Pharmaceuticals, LLC, priority 2010, dated 2013)

Experiment: clinical
Settings: human, in vivo, 100 mg; for AUC(0-t): AUC0-t; for Vd/F: Vz/F
Text: Methods: This was an open-label study conducted at a single study center in conformance with good clinical practice (GCP). Thirty-six eligible healthy male and female subjects were enrolled and distributed into 3 groups as follows:
Group 1—A total of 12 females between 18 to 55 years of age, inclusive (±5 years age-matched and ±10% weight-matched to subjects in Group 2).
Group 2—A total of 12 males between 18 to 55 years of age, inclusive (±5 years age-matched and ±10% weight-matched to subjects in Group 1).
Group 3—A total of 12 males and females between 65 and 85 years of age, inclusive (weight and gender-matched to subjects in Groups 1 and 2), with a minimum of 3 subjects of each gender. Seven of the subjects in Group 3 were age 70 or above, with 2 of those subjects being >75 years of age.
Group 1 (Healthy Females) and Group 3 (Elderly Males and Females): Subjects were screened within 21 days of dosing and eligible subjects were admitted to the study center on Day −1 (i.e., at least 12 hours predose) for baseline assessments and confirmation of eligibility. A single oral dose of 100 mg Compound I was administered on Day 1 following an overnight fast of at least 8 hours. Subjects were discharged from the study center the morning of Day 3 upon completion of study procedures and returned to the study center for PK blood draws and safety assessments on Days 4, 5, and 6. The end-of-study (EOS) evaluation also occurred on Day 6. Subjects returned to the study center for a follow-up visit between 7 and 10 days from EOS. Serial blood samples were collected predose and up to 120 hours postdose for the determination of plasma Compound I concentrations. Safety was monitored throughout the study; safety evaluations included AE reporting, physical examinations, vital sign measurements, ECGs, and clinical laboratory safety tests. All AEs and concomitant medications were assessed and recorded throughout the study from the time the ICF was signed through follow-up.
Group 2 (Healthy Males): Subjects in Group 2 participated in this portion of the study to evaluate food effect using a randomized, open-label, single dose, 2-period (Period 1 and Period 2), 2-sequence, 2-way crossover design. Subjects were screened within 21 days of dosing and eligible subjects were admitted to the study center on Day −1 (i.e., at least 12 hours predose) for baseline assessments and confirmation of eligibility. On Day 1 of Period 1, following an overnight fast of at least 8 hours, subjects were randomized to receive 100 mg Compound I either with or without food (6 subjects received Compound I with food and 6 subjects received Compound I without food) according to a random code. Subjects were discharged from the study center the morning of Day 3 upon completion of study procedures and returned to the study center for PK blood draws and safety assessments on Days 4, 5, and 6.
Following an interdose interval of 10 to 15 days (i.e., at least 10 days and no more than 15 days from the dosing day (Day 1) of Period 1 to Day 1 of Period 2), subjects were re-admitted to the study center on Day −1 of Period 2 (i.e., at least 12 hours predose) for baseline assessments and reconfirmation of eligibility. On Day 1 of Period 2, assigned treatment was switched. Subjects who received Compound I with food in Period 1 received Compound I without food in Period 2 and subjects who received Compound I without food in Period 1 received Compound I with food in Period 2. Subjects were discharged from the study center the morning of Day 3 upon completion of study procedures and returned to the study center for PK blood draws and safety assessments on Days 4, 5, and 6. Day 6 of Period 2 also served as the EOS evaluation. Subjects returned to the study center for a follow-up visit between 7 and 10 days from EOS. In each study period, serial blood samples were collected predose and up to 120 hours postdose for the determination of plasma Compound I concentrations. […]

Structure (SMILES): O[C@H]1CC[C@H](Nc2ncc3nc(Nc4c(F)cc(F)cc4F)n([C@H]4CCOC4)c3n2)CC1 [Compound I, 4-((9-((3S)-tetrahydro-3-furanyl)-8-((2,4,6-trifluorophenyl)amino)-9H-purin-2-yl)amino)-trans-cyclohexanol]
- AUC(0-t) (both sexes, po, Geometric Mean): 13500 ng·h/mL
- AUC(0-t) (both sexes, po, Geometric Means): 13500 ng·h/mL
- AUC(0-inf) (both sexes, po, AUC0-∞ (geometric mean)): 14400 ng·h/mL
- AUC(0-inf) (both sexes, po, AUC0-∞, Geometric Mean): 14400 ng·h/mL
- AUC(0-inf) (both sexes, po, AUC0-∞, Geometric Means): 14300 ng·h/mL
- AUC (both sexes, po, AUCO-inf): 14800 ng·h/mL
- AUC (both sexes, po, AUCO-t): 14200 ng·h/mL
- Cmax (both sexes, po, Cmax): 742 ng/mL
- Cmax (both sexes, po, Cmax (geometric mean)): 649 ng/mL
- Cmax (both sexes, po, Cmax, Geometric Mean): 602 ng/mL
- Cmax (both sexes, po, Cmax, Geometric Means): 654 ng/mL
- half-life (both sexes, po, T1/2): 24.5 h
- Tmax (both sexes, po, Tmax): 1.97 h
- Tmax (both sexes, po, Tmax, Median): 2 h
- Vd/F (both sexes, po): 250 L
- half-life (both sexes, po, mean t1/2): 23 to 34 h
- Tmax (both sexes, po, median Tmax): 1 to 2 h
- half-life (both sexes, po, t1/2, Geometric Mean): 27.9 h
- 90% CI for the ratio (elderly/young) of geometric means, AUC0-t (both): 86.7, 119.1
- 90% CI for the ratio (elderly/young) of geometric means, AUC0-∞ (both): 84.0, 117.3
- 90% CI for the ratio (elderly/young) of geometric means, Cmax (both): 82.0, 143.8
- 90% CI for the ratio (female/male) of geometric means, AUC0-t (both): 81.7, 112.1
- 90% CI for the ratio (female/male) of geometric means, AUC0-∞ (both): 79.7, 111.4
- 90% CI for the ratio (female/male) of geometric means, Cmax (both): 72.3, 126.7
- AUC0-t, Geometric Mean (both, po): 13679.40 ng·h/mL
- AUC0-t, Geometric Means (both, po): 13722.1 ng·h/mL
- AUC0-∞ (geometric mean) (both, po): 14239.14 ng·h/mL
- AUC0-∞, Geometric Mean (both, po): 14239.14 ng·h/mL
- AUC0-∞, Geometric Means (both, po): 14398.3 ng·h/mL
- Cmax, Geometric Means (both, po): 602.0 ng/mL
- Tmax, Median (both, po): 1.75 h
- median Tmax (both, po): approximately 1.5 hours
- t1/2, Geometric Mean (both, po): 23.61 h
- AUC(0-t) (female, po, Geometric Mean): 13100 ng·h/mL
- AUC(0-t) (female, po, Geometric Means): 13300 ng·h/mL
- AUC(0-inf) (female, po, AUC0-∞): 13700 ng·h/mL
- AUC(0-inf) (female, po, AUC0-∞, Geometric Mean): 13700 ng·h/mL
- AUC(0-inf) (female, po, AUC0-∞, Geometric Means): 13900 ng·h/mL
- AUC (female, po, AUCO-inf): 13300 ng·h/mL
- AUC (female, po, AUCO-t): 12700 ng·h/mL
- Cmax (female, po, Cmax): 587 ng/mL
- Cmax (female, po, Cmax, Geometric Mean): 587 ng/mL
- Cmax (female, po, Cmax, Geometric Means): 614 ng/mL
- half-life (female, po, T1/2): 24.4 h
- Tmax (female, po, Tmax): 2.19 h
- Tmax (female, po, Tmax, Median): 2.06 h
- Vd/F (female, po): 265 L
- Tmax (female, po, median Tmax): 2 h
- half-life (female, po, t1/2, Geometric Mean): 24.6 h
- 90% CI of the median difference (elderly-young), Tmax: −0.5, 0.5
- 90% CI of the median difference (fed-fast), Tmax: 2.00, 3.00
- 90% CI of the median difference (female-male), Tmax: 0.00, 1.00
- 90% CI for the ratio (fed/fast) of geometric means, AUC0-t (male): 97.3, 108.1
- 90% CI for the ratio (fed/fast) of geometric means, AUC0-∞ (male): 98.5, 109.4
- 90% CI for the ratio (fed/fast) of geometric means, Cmax (male): 71.6, 105.3
- Tmax (male): 1.00 h
- AUC(0-t) (male): 14400 ng·h/mL
- AUC(0-inf) (male, AUC0-∞): 15600 ng·h/mL
- Cmax (male, Cmax): 658 ng/mL
- half-life (male, t1/2): 32 h
- median Tmax (male, po): 1 h
- AUC(0-t) (male, po, Geometric Mean): 14000 ng·h/mL
- AUC(0-inf) (male, po, AUC0-∞): 15000 ng·h/mL
- AUC(0-inf) (male, po, AUC0-∞ (geometric mean)): 16200 ng·h/mL
- AUC(0-inf) (male, po, AUC0-∞, Geometric Mean): 15000 ng·h/mL
- AUC (male, po, AUCO-inf): 16000 ng·h/mL
- AUC (male, po, AUCO-t): 14700 ng·h/mL
- Cmax (male, po, Cmax): 646 ng/mL
- Cmax (male, po, Cmax (geometric mean)): 572 ng/mL
- Cmax (male, po, Cmax, Geometric Mean): 646 ng/mL
- half-life (male, po, T1/2): 33 h
- Vd/F (male, po): 308 L
- half-life (male, po, t1/2, Geometric Mean): 28.1 h
